Data on five compounds can be found in patent US10167313B2, “Selective caspase inhibitors and uses thereof” (Genesis Technologies Limited, priority 2008, dated 2019).

Where two headings read alike, the source gives them in different places.

The target in one assay is caspase-1 (Homo sapiens (Human), UniProt P29466). The assay is described as follows: Caspase-1 Inhibitor Drug Screening Kit, fluorometric enzymatic assay. Particulars: for IC50: read-out: Caspase enzymatic activity, IC50 (uM) Caspase 1, 30-minute incubation at 37° C., AFC liberation; for inhibitory activity for caspase-1 (in words): tested dose-range 1-3333 nM.
caspase-1, sequence (P29466 120-297): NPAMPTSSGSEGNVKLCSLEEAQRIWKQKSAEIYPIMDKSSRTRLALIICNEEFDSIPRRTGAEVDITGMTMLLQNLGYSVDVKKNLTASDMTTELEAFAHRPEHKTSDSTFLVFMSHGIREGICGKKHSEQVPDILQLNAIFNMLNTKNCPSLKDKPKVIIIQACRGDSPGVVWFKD
caspase-1, sequence (P29466 317-404): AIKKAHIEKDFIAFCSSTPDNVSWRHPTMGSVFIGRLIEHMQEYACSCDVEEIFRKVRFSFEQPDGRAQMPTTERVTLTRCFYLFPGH
Another assay addresses caspase-5 (Homo sapiens (Human), UniProt P51878). The assay is described as follows: Caspase-5 Inhibitor Drug Screening Kit, fluorometric enzymatic assay. Particulars: for IC50: read-out: Caspase enzymatic activity, IC50 (uM) Caspase 5, 30-minute incubation at 37° C., AFC liberation; for inhibitory activity for caspase-5 (in words): tested dose-range 1-3333 nM.
The target of another assay is Caspase 3/7 (Glo3/7). Briefly: Glo3/7 assay.
Another assay concerns the target caspase-9 (Homo sapiens (Human), UniProt P55211). Briefly: Caspase-9 Inhibitor Drug Screening Kit, fluorometric enzymatic assay. Conditions: for IC50: read-out: Caspase enzymatic activity, IC50 (uM) Caspase 9, 30-minute incubation at 37° C., AFC liberation; for inhibitory activity for caspase-9 (in words): tested dose-range 1-3333 nM.
In the next assay the test system is Hela cells. The assay is described as follows: Inhibition of proteolytic cleavage of PARP in staurosporine-treated live Hela cells. In kind it is cell-based. Conditions: for inhibition at 50 µM: Homo sapiens; for effectivity in inhibiting PARP cleavage (in words): relative to DEVD-fmk. As for the experimental part:
To test the efficacy of caspase-3 inhibitors at the cellular level, the ability of selected compounds to inhibit the proteolytic cleavage of PARP (poly ADP-ribose polymerase) was evaluated in live Hela cells.
Briefly, in this assay Hela cells are seeded in 96 well plates and incubated for 4 hours with staurosporine, a well characterized inducer of apoptosis, alone or together with different concentrations of compound (50, 25, 10 and 3 uM). After formaldehyde-based fixation, the cells are stained with a fluorescein-labeled anti-cleaved PARP antibody (Cell signaling, Cat#: 9547) and counterstained with Hoechst33342 (Invitrogen, Cat#: H3570) to mark all nuclei. Fluorescence images are taken on a Cellomics™ microscope system (Thermo Scientific, Pittsburgh, USA) with the Hoechst stain in the blue channel and the cleaved PARP antibody stain in the green channel. The percentage of cleaved PARP positive cells is determined by calculating the ratio between nuclei with a cleaved PARP antibody staining above a certain threshold and all (Hoechst positive) nuclei. The efficacy of caspase-3 inhibition is determined by calculating the ratio between cleaved PARP positive cells after staurosporine incubation together with compounds and staurosporine incubation without compounds.

In another assay the target is caspase-7 (Homo sapiens (Human), UniProt P55210). Briefly: Caspase-7 Inhibitor Drug Screening Kit, fluorometric enzymatic assay. Conditions: based on the IC50 values.
caspase-7, sequence (P55210 24-198): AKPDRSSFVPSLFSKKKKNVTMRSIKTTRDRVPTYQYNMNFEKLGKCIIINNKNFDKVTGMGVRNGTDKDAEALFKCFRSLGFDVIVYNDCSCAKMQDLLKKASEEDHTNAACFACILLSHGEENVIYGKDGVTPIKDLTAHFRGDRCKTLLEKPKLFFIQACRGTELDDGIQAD
caspase-7, sequence (P55210 207-303): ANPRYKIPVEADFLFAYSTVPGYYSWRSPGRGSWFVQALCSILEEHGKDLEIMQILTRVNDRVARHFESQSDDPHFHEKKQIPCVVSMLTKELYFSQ
[1] abbreviates: 50 uM, relative to DEVDFMK, read-out: % of inhibition with compound relative to DEVDFMK.
Where [2] appears, read: read-out: % inhibition of PARP cleavage at 50 uM compound, staurosporine 4 hours, 50 uM compound.

caspase-5, sequence (P51878 137-327): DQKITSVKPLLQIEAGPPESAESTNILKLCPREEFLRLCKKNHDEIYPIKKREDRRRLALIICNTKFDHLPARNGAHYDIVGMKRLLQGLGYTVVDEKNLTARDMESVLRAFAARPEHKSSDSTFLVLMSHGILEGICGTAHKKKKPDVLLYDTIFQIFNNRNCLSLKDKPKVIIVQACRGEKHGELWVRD
caspase-5, sequence (P51878 347-434): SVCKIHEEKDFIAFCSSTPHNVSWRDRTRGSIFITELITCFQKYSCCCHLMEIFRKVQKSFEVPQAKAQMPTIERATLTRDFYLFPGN
caspase-9, sequence (P55211 1-315): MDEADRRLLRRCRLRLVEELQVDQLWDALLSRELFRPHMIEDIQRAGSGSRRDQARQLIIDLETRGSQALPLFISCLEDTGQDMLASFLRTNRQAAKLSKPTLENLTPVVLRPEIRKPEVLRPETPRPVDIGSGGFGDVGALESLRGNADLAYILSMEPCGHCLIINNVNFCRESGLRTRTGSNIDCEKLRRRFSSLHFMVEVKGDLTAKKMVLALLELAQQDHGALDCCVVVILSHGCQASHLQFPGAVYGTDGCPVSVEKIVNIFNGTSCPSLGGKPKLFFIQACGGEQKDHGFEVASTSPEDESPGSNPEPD
caspase-9, sequence (P55211 331-416): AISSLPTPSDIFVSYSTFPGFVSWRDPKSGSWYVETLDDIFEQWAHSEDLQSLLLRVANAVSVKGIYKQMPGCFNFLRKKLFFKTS
Experimental for caspase-1: (§1) The level of inhibition of caspase-1, -3, -5, -7, -9 activity was determined by comparison of the relative fluorescence intensity in samples with or without the compound.
Experimental for caspase-5: as §1
Experimental for caspase-7: as §1
Experimental for caspase-9: as §1

As a reminder, the IC50 is the concentration at which inhibition is half-maximal. The term inhibition denotes the percentage by which the read-out fell short of the control. As to `CC(C)[C@H](NC(=O)[C@H](Cc1ccc(O)cc1)NC(=O)[C@H](CC(=O)O)NC(=O)OCc1ccccc1)C(=O)N[C@H](/C=C/S(C)(=O)=O)CC(=O)O` [Compound 76, Z-Asp-Tyr-Val-Aspmethyl vinyl sulfone], the IC50 is > 3.33 µM on caspase-1, > 3.33 µM at caspase-5, 0.04 µM against Caspase 3/7 (Glo3/7) and > 3.33 µM at caspase-9. Besides, in the assay with Hela cells, the “reduction of the percentage of PARP positive cells after staurosporine treatment” value is “more than 50%”. The inhibition at 50 µM with Hela cells (setting [1]) is 60%; in the assay with Hela cells (setting [2]), 55%.
With `CC(C)[C@H](NC(=O)[C@@H](NC(=O)[C@H](CC(=O)O)NC(=O)OCc1ccccc1)c1ccccc1)C(=O)N[C@H](/C=C/S(C)(=O)=O)CC(=O)O` [Compound 53, Z-Asp-Phg-Val-Aspmethyl vinyl sulfone], the “selectivity of caspase-3 over caspase-7 (IC50 fold difference)” value on caspase-7 is reported as “about 12 fold”. The figures for the IC50 at caspase-5, against Caspase 3/7 (Glo3/7) and at caspase-9 were > 10 µM, 0.1 µM and > 10 µM, respectively. Also, the “reduction of the percentage of PARP positive cells after staurosporine treatment” value in the assay with Hela cells was “more than 50%”. The inhibition at 50 µM in the assay on Hela cells (setting [1]) is 80%; in the assay on Hela cells (setting [2]), 55%. The “effectivity in inhibiting PARP cleavage (in words)” value in the assay with Hela cells is recorded as “highly effective relative to DEVD-fmk”.
On to `CC(C)[C@H](NC(=O)[C@@H](NC(=O)[C@H](CC(=O)O)NC(=O)OCc1ccccc1)C1Cc2ccccc2C1)C(=O)N[C@H](/C=C/S(C)(=O)=O)CC(=O)O` [Compound 57, Z-Asp-Indanylglycine-Val-Aspmethyl vinyl sulfone], for which, at caspase-1, the “fold less efficiency against caspase-1 than against group III caspases” value is given as “about 29 fold”. The IC50 on caspase-5 was > 3.33 µM; at Caspase 3/7 (Glo3/7), 0.1 µM; at caspase-9, > 3.33 µM. Besides, the inhibition at 50 µM in the assay with Hela cells (setting [1]) is 70%; with Hela cells (setting [2]) it was 65%.
Turning to `CC(C)[C@H](NC(=O)[C@H](Cc1ccc2ccccc2n1)NC(=O)[C@H](CC(=O)O)NC(=O)OCc1ccccc1)C(=O)N[C@H](/C=C/S(=O)(=O)c1ccccc1)CC(=O)O` [Compound 63, Z-Asp-Ala(2′-quinolyl)-Val-Aspphenyl vinyl sulfone], the “selectivity of caspase-3 over caspase-7 (IC50 fold difference)” value at caspase-7 is recorded as ~50 fold. For the same compound, the IC50 at caspase-1 is > 3.33 µM; at caspase-5 it was > 3.33 µM; at Caspase 3/7 (Glo3/7) it was 0.9 µM; at caspase-9, > 3.33 µM. For the same compound, at caspase-1, the “inhibitory activity for caspase-1 (in words)” value is “No significant inhibitory activity”. Further, the “inhibitory activity for caspase-5 (in words)” value against caspase-5 was “No significant inhibitory activity”. Further, on caspase-9, the “inhibitory activity for caspase-9 (in words)” value is reported as “No significant inhibitory activity”. The inhibition at 50 µM is 15% in the assay on Hela cells (setting [1]) and 10% in the assay with Hela cells (setting [2]).
On to `CC(C)[C@H](NC(=O)[C@H](Cc1ccc2ccccc2n1)NC(=O)[C@H](CC(=O)O)NC(=O)OCc1ccccc1)C(=O)N[C@H](/C=C/S(C)(=O)=O)CC(=O)O` [Compound 55, Z-Asp-Ala(2′-quinolyl)-Val-Aspmethyl vinyl sulfone], for which the IC50 at caspase-1 is > 10 µM; at caspase-5, > 10 µM; on Caspase 3/7 (Glo3/7), 0.1 µM; on caspase-9, > 3.33 µM. Also, the figures for the inhibition at 10 µM on caspase-1 (read-out: Inhibition of Caspase-1), on caspase-5 (read-out: Inhibition of Caspase-5) and at caspase-9 (read-out: Inhibition of Caspase-9) were 25%, 21% and 57%, respectively. Also, the “inhibitory activity for caspase-1 (in words)” value against caspase-1 was “No significant inhibitory activity”. On caspase-5, the “inhibitory activity for caspase-5 (in words)” value is “No significant inhibitory activity”. The “inhibitory activity for caspase-9 (in words)” value against caspase-9 was “No significant inhibitory activity”. Also, the figures for the inhibition at 50 µM in the assay on Hela cells (setting [1]) and in the assay on Hela cells (setting [2]) were 60% and 40%, respectively. Moreover, the “effectivity in inhibiting PARP cleavage (in words)” value in the assay on Hela cells was “showing effectivity”.
